# Patent publication US5763443A, “MDR resistance treatment and novel pharmaceutically active riminophenazines” (priority 1994, dated 1998)
# Read-outs that look alike come from different tables or passages of the source.
# Assays:
# [1] = system: MDR leukaemia cell line K562/MMB; experiment: cells; details: for MDR activity / sensitivity against cell line K562/MMP: compared with known reference compound B4100
# Method: A third cell line (562/MMB) used was a MDR leukemia cell line selected in vitro by progressive exposure to increasing concentrations of vinblastine in order to increase P-glycoprotein expression. This cell line was developed in the Department of Immunology, University of Pretoria from K562 (ATCC CCL 243) supplied by Highveld Biological (Pty) Ltd, Sandton.
# (§1) The general procedure set forth above was followed, i.e. 7 days incubation in the4 presence of doxorubicin at 12,5 ng/ml or vinblastine at 25 or 3 ng/ml.
# (§2) The effects were examined over a seven (7) day exposure to different concentrations of B4119 and B4125 on the sensitivity of a doxorubicin resistant leukaemia cell line (K562/MMB) and a lung carcinoma cell line (H69/LX4) to doxorubicin (dox) and vinblastine (VB) using the MTT assay.
# [2] = system: multi-drug resistant (MDR) lung carcinoma cell line H69/LX4; experiment: in vitro; details: for INCREASED SENSITIVITY H69/Lx4: Table VIII, values equal IC50 NONE / IC50 with VB 25 ng/ml of Table VII, 10080 min; for MDR reversal properties: with doxorubicin 12,5 ng/ml or vinblastine 25 ng/ml, FIGS. 4 to 7
# Method: (§3) The riminophenazines of the above formula (I), contain an imino group. […] The potency of compounds of the above general formula, as inhibitors of multi-drug resistance, was assessed by sensitization of a P-glycoprotein positive cell line to drugs associated with this form of resistance. A human small cell lung cancer cell line H 69/P as well as a multi-drug resistance (MDR) sub-line H69/LX4 were used. These cell lines were obtained from the Medical Research Council Clinical Oncology and Radiotherapeutics Unit, Hills Road, Cambridge, England. The H69/LX4 line was selected in vitro by progressive exposure to increasing concentrations of doxorubicin in order to increase P-glycoprotein expression.
# (§4) The cell lines used were human small cell lung cancer cell line HP69/P and a multi-drug resistant (MDR) sub-line H69/LX4, both of which were supplied by the MRC Clinical Oncology and Radiotherapeutics Unit, Hills Road, Cambridge, England. The maintenance of the cell lines and drug response assays was done as described by Twentyman et al in British Journal of Cancer Volume 65 pages 335-340. The H69/LX4 line was originally described by Twentyman et al in British Journal of Cancer Volume 53, pages 529-637 (1986).
# (§5) The data in parenthesis represents fold sensitivity compared with the chemotherapeutic agent without the MDR inhibitor.
# The results obtained, are illustrated graphically in FIGS. 4 to 7 of the accompanying drawings.
# as §1, §2
# H69/LX4 cells = experiment: [14C]-vinblastine accumulation in MDR cell line; type: cell-based, human; details: 1 hour pretreatment, 30 minutes [14C]-vinblastine
# Method: The effect of riminophenazines on the accumulation of [^14 C]-vinblastine was investigated. For these experiments, both of the above cell lines (H69/LX4 and H69/P) were prepared as described by Coley et al (Biochem. Pharmacal 38, 4467-4475 (1989)). After a 1 hour pretreatment with the MDR reversal agents, cells (1×10^6 /ml) were exposed to […] [^14 C]-vinblastine (1 μCi specific activity) for 30 minutes.
# [3] = system: human small cell lung cancer cell line H69/P; experiment: MTT assay, 7 day exposure, sensitivity of parent cell line H69/P to chemotherapeutic agents; type: cell-based
# Method: as §3, §4, §5
# [4] = bio-availability (no method given)
# [5] = system: gram positive microorganisms (Mycobacterium, Enterococcus, Streptococcus, methicillin resistant Staphylococcus); experiment: anti-bacterial activity
# [6] = Homo sapiens, K562, read-out: IC 50 K562/MMB VB 3 ng/ml, Table VII, with vinblastine 3 ng/ml
# [7] = Table VIII, values equal IC50 NONE / IC50 with VB 3 ng/ml of Table VII, 10080 min
# [8] = H69/LX4, CsA 5 μg/ml, clofazimine 1 μg/ml or B669 0.5 μg/ml
# [9] = Homo sapiens, 168 h, read-out: IC 50 H69/Lx4 NONE
# [10] = Homo sapiens, read-out: IC 50 H69/Lx4 DOX 12 ng/ml
# [11] = Homo sapiens, read-out: IC 50 H69/Lx4 VB 25 ng/ml
# [12] = H69/P, CsA 5 μg/ml, clofazimine 1 μg/ml or B669 0.5 μg/ml
# [13] = Homo sapiens, K562, 168 h, read-out: IC 50 K562/MMB NONE
# [14] = Homo sapiens, K562, read-out: IC50 K562/MMB +VB (3 ng/ml), Table VI, with vinblastine 3 ng/ml
# [15] = Homo sapiens, K562, read-out: IC50 K562/MMB +dox (12 ng/ml), Table VI, with doxorubicin 12 ng/ml
# [16] = Homo sapiens, K562, read-out: IC 50 K562/MMB DOX 12 ng/ml, Table VII, with doxorubicin 12 ng/ml
# [17] = Homo sapiens, K562, read-out: IC50 K562/MMB none
# [18] = Homo sapiens, read-out: IC50 H69/LX4 +VB (25 ng/ml)
# [19] = Homo sapiens, read-out: IC50 H69/LX4 +dox (12 ng/ml)
# [20] = Homo sapiens, read-out: IC50 H69/LX4 none
# [21] = Homo sapiens, K562, 168 h, read-out: cytotoxic activity of chemotherapeutic agent at the concentration used with the riminophenazine
# [22] = Homo sapiens, 168 h, read-out: cytotoxic activity of chemotherapeutic agent at the concentration used with the riminophenazine
SMILES,"IC50 [1, 6] [µg/mL]",MDR activity / sensitivity against cell line K562/MMP [1],"IC50 [2, 9] [µg/mL]","IC50 [2, 10] [µg/mL]","IC50 [2, 11] [µg/mL]",INCREASED SENSITIVITY H69/Lx4 [2],"INCREASED SENSITIVITY K 562/MMB [1, 7]","IC50 [1, 16] [µg/mL]",anti-bacterial activity [5],other results
"CC(C)N=c1cc2n(-c3ccc(Cl)cc3)c3ccccc3nc-2cc1Nc1ccc(Cl)cc1 [Compound B663, N,5-bis-(4-chlorophenyl)-3,5-dihydro-3-[(1-methylethyl)imino]-2-phenazinamine, reference compound]",0.038,good activity,2.5,1.31,0.372,6.72,,,,"INCREASED S[…] 562/MMB [1, 7]: 5.92; fold sensitivity to Etoposide compared with agent without MDR inhibitor ([2]; 168 h, 1 ug/mL): 5.0 fold; fold sensitivity to Cyclophosphamide compared with agent without MDR inhibitor [2, 8]: 1.0 fold; fold sensitivity to Daunorubicin compared with agent without MDR inhibitor [2, 8]: 4 fold; fold sensitivity to Doxorubicin compared with agent without MDR inhibitor [2, 8]: 11 fold; fold sensitivity to Methotrexate compared with agent without MDR inhibitor [2, 8]: 0.7 fold; fold sensitivity to Mitomycin C compared with agent without MDR inhibitor [2, 8]: 1.7 fold; fold sensitivity to Vinblastine compared with agent without MDR inhibitor [2, 8]: ~13 fold; fold sensitivity to Vinblastine compared with agent without MDR inhibitor ([2]; H69/LX4, CsA 5 μg/ml, clofazimine 1 μg/ml or B669 0.5 μg/ml, listed as Clofazimine (B663)): 13.7 fold; vinblastine accumulation in the MDR cell line (H69/LX4 cells): significant enhancement; fold sensitivity to Etoposide compared with agent without MDR inhibitor ([3]; 168 h, 1 ug/mL): 0.6 fold; fold sensitivity to Cyclophosphamide compared with agent without MDR inhibitor [3, 12]: 0.9 fold; fold sensitivity to Daunorubicin compared with agent without MDR inhibitor [3, 12]: 1.0 fold; fold sensitivity to Doxorubicin compared with agent without MDR inhibitor [3, 12]: 0.8 fold; fold sensitivity to Methotrexate compared with agent without MDR inhibitor [3, 12]: 0.9 fold; fold sensitivity to Mitomycin C compared with agent without MDR inhibitor [3, 12]: 0.7 fold; fold sensitivity to Vinblastine compared with agent without MDR inhibitor [3, 12]: 1.3 fold"
"CC1(C)CC(N=c2cc3n(-c4ccc(C(F)(F)F)cc4)c4ccccc4nc-3cc2Nc2ccc(C(F)(F)F)cc2)CC(C)(C)N1 [Compound B4103, N,5-bis(4-trifluoromethylphenyl)-3,5-dihydro-3[(2',2',6',6'-tetramethyl-4-piperidyl)imino]-2-phenazinamine]",,,0.755,0.552,0.145,5.21,0.69,,,MDR reversal properties ([2]; H69/LX4): Very good MDR reversal properties; bio-availability [4]: good bio-availability
"CC1(C)CC(N=c2cc3n(-c4ccc(F)c(Cl)c4)c4ccccc4nc-3cc2Nc2ccc(F)c(Cl)c2)CC(C)(C)N1 [Compound B4119, N,5-bis(3-chloro-4-fluorophenyl)-3,5-dihydro-3-[(2',2',6',6'-tetramethyl-4-piperidyl)-imino]-2-phenazinamine]",0.189,,0.62,0.6,0.109,5.69,1.46,0.147,Particularly active,"IC50 [1, 13]: 0.276 µg/mL; IC50 [1, 14]: 0.189 µg/mL; IC50 [1, 15]: 0.147 µg/mL; IC50 [1, 17]: 0.276 µg/mL; IC50 [2, 18]: 0.109 µg/mL; IC50 [2, 19]: 0.6 µg/mL; IC50 [2, 20]: 0.62 µg/mL"
"CC1(C)CC(N=c2cc3n(-c4cc(Cl)cc(Cl)c4)c4ccccc4nc-3cc2Nc2cc(Cl)cc(Cl)c2)CC(C)(C)N1 [Compound B4121, N,5-bis(3,5-dichiorophenyl)-3,5-dihydro-3-[(2',2',6',6'-tetramethyl-4-pipendyl)-imino]-2-phenazinamine]",0.023,increased substantially and unexpectedly,1.23,0.524,0.162,7.57,97.83,,Particularly active,
"CC1(C)CC(N=c2cc3n(-c4ccccc4Cl)c4ccccc4nc-3cc2Nc2ccccc2Cl)CC(C)(C)N1 [Compound B4125, N,5-bis(2-chlorophenyl)-3,5-dihydro-3-[(2',2',6',6'-tetramethyl-4-piperidyl)-imino]-2-phenazinamine]",0.026,exceptionally good activity,0.785,0.521,0.399,1.97,11.96,0.188,Particularly active,"IC50 [1, 13]: 0.311 µg/mL; IC50 [1, 14]: 0.026 µg/mL; IC50 [1, 15]: 0.188 µg/mL; IC50 [1, 17]: 0.311 µg/mL; IC50 [2, 18]: 0.399 µg/mL; IC50 [2, 19]: 0.521 µg/mL; IC50 [2, 20]: 0.785 µg/mL"
"CC1(C)CC(N=c2cc3n(-c4cccc(C(F)(F)F)c4)c4ccccc4nc-3cc2Nc2cccc(C(F)(F)F)c2)CC(C)(C)N1 [Compound B4126, N,5-bis(3-trifluoromethyl-phenyl)-3,5-dihydro-3-[(2',2',6',6'-tetramethyl-4-piperidyl)-imino]-2-phenazinamine]",,,0.699,0.455,0.26,2.69,4.45,,Particularly active,
"CC(C)c1ccc(Nc2cc3nc4ccccc4n(-c4ccc(C(C)C)cc4)c-3cc2=NC2CC(C)(C)NC(C)(C)C2)cc1 [Compound B4158, N,5-bis(4-isopropylphenyl)-3,5-dihydro-3-[(2',2',6',6'-tetramethyl-4-piperidyl)-imino]-2-phenazinamine]",,,0.408,0.343,0.124,3.29,4.69,,,MDR activity against the cell line H69/LX4 [2]: Reasonably good activity; MDR reversal properties ([2]; H69/LX4): Very good MDR reversal properties; bio-availability [4]: good bio-availability
"CC1(C)CC(N=c2cc3n(-c4ccc(C(F)(F)F)cc4C(F)(F)F)c4ccccc4nc-3cc2Nc2ccc(C(F)(F)F)cc2C(F)(F)F)CC(C)(C)N1 [Compound B4178, N,5-bis(2,4-di-trifluoromethyl-phenyl)-3,5-dihydro-3-[(2',2',6',6'-tetramethylpiperidyl)-imino]phenazinamine]",0.199,,0.785,0.521,0.399,1.97,6.03,0.919,,"IC50 ([1]; Homo sapiens, K562, 168 h, read-out: IC 50 K562/MMB NONE, Table VII, riminophenazine alone, 7 day): 1.02 µg/mL"
"COc1cccc2c1C(=O)c1c(O)c3c(c(O)c1C2=O)C[C@@](O)(C(=O)CO)C[C@@H]3O[C@H]1C[C@H](N)[C@H](O)[C@H](C)O1 [Doxorubicin, reference compound]",,,,,,,,,,"cytotoxicity at 0.0125 µg/mL [1, 21]: < 10%; cytotoxicity at 0.0125 µg/mL [2, 22]: < 10%"
"CC[C@]1(O)C[C@@H]2CN(CCc3c([nH]c4ccccc34)[C@@](C(=O)OC)(c3cc4c(cc3OC)N(C)[C@H]3[C@@](O)(C(=O)OC)[C@H](OC(C)=O)[C@]5(CC)C=CCN6CC[C@]43[C@@H]65)C2)C1 [Vinblastine, reference compound]",,,,,,,,,,"cytotoxicity at 0.003 µg/mL [1, 21]: < 10%; cytotoxicity at 0.025 µg/mL [2, 22]: < 10%"
